This note sets out measurements from US20040044077A1, “Agents for inhibiting or restoring skin damage caused by drying and method for evaluating the same” (priority 2000, published 2004).

One assay relates to filaggrin gene. As to the kind of experiment: Expression level of the filaggrin gene (RT-PCR) in cultured human keratinocytes exposed to a gaseous phase (drying). Format: cell-based. The note with it: drying stimulus; for Relative expression level of filaggrin gene (%) Mean: no treatment = 100. The procedure: (§1) Normal keratinocytes of human preputial origin and 3T3 cells of mouse origin were used.
(§2) The culture medium was DMEM-Ham's F12 (3:1) containing hydrocortisone, cholera enterotoxin, epidermal growth factor, insulin and 10% FBS.
(§3) The keratinocytes were cultured according to the method described in Rheinwald et al., Cell, 6, 331-344(1975).
(§4) An outline is given below. 3T3 cells were treated with mitomycin C and used as a feeder layer. Normal human keratinocytes (1×10^5 cells) were inoculated onto mitomycin C-treated 3T3 cells and cultured at 37° C. in a 95% air-5% carbon dioxide environment until they became confluent. They were exposed to a gaseous phase by removing the culture supernatant. Each test substance was added 30 minutes before exposed to a gaseous phase, followed by incubation at 37° C. The culture to which no test sample was added was used as a control. The exposure to a gaseous phase was carried out at 37° C. for 0-6 hours.
After each test substance was added to the aforesaid culture system and the cells were exposed to a gaseous phase for a predetermined period of time, RNA was extracted from the cells according to the AGPC method. This RNA was subjected to RT-PCR in the following manner. A primer specific for fillaggrin was prepared on the basis of the base sequence of filaggrin which is reported in McKinley-Grant L. J. et al., Proc. Natl. Acad. Sci. U.S.A., 86, 4848-4852(1989). In order to assay mRNA for filaggrin, RT-PCR was carried out by converting mRNA to cDNA with the aid of reverse transcriptase. Using this cDNA as a template with the aforesaid primer, a polymerase reaction (a well-known reaction) was carried out. After the PCR product was electrophoresed in agarose gel, the resulting gel was soaked in an ethidium bromide solution and assayed for DNA. The quantitative analysis of DNA bands was carried out with NIH Image (analytical program). A correction was made with the aid of glyceraldehyde-3-phosphate dehydrogenase (G3PDH).
(6-8) The efficacies of other active ingredients and combinations of active ingredients in inhibiting a reduction in the expression of the filaggrin gene in cultured human keratinocytes as induced by drying are shown in Tables 1 and 2 below, respectively. In these tables, the degree to which the addition of a drug inhibited a reduction in gene expression is expressed as a percentage, assuming that the gene expression before drying is 100% and the gene expression after drying is […]. In Table 1, each active ingredient was added at an extract concentration of 0.5%. In Table 2, compositions containing the indicated active ingredient(s) at the indicated concentration(s) (in % by weight) were tested.
The aforesaid recovery rates (%) indicate the degree to which the addition of each test substance restored the expression level of the filaggrin gene as compared with that in the untreated group not exposed to a drying stimulus.

The subject of another assay is filaggrin protein. As to the kind of experiment: Amount of filaggrin protein (western blotting) in cultured human keratinocytes exposed to a gaseous phase (drying). The following applies: culture in the presence of 10% glycerol, FIG. 3. Format: cell-based. The procedure: as §1, §2, §3, §4
After each test substance was added to the aforesaid culture system and the cells were exposed to a gaseous phase for a predetermined period of time, protein was extracted from the cells. According to a conventional method, filaggrin protein or filaggrin protein precursor (profilaggrin) was determined by western blotting. An outline is given below. […] The quantitative analysis of bands was carried out with NIH Image (analytical program). […]

As for `OCC(O)CO` [glycerol], the results for the “Recovery rate (%)” value with filaggrin gene (0.15% by weight) and in the assay on filaggrin gene (0.30% by weight) were 7.5% and 60.4%, respectively. Also, the “Relative expression level of filaggrin gene (%) Mean” value (“Relative expression level … (%) Mean” below) came out at 51% in the assay on filaggrin gene (0.15% by weight) and 79% in the assay with filaggrin gene (0.30% by weight). For the same molecule, in the assay with filaggrin protein, the “effect on reduction in filaggrin protein level induced by drying” value is “inhibiting a reduction in filaggrin protein level”.
`OC[C@@H](O)[C@H](O)[C@@H](O)CO` [xylitol]: in the assay on filaggrin gene (0.15% by weight), the “Recovery rate (%)” value stood at 5.7% and the “Relative expression level … (%) Mean” value is reported as 50%. In the assay on filaggrin gene (0.30% by weight), the “Recovery rate (%)” value was 37.7% and the “Relative expression level … (%) Mean” value is 67%.
